In series [1] the test system is Human immunodeficiency virus 1. The series is described as follows: Antiviral activity against HIV-1 NL4-3 infected in human MT-4 cells assessed as virus induced cytopathic effect by MTT assay. Type of series: functional, organism-based. Conditions: Human immunodeficiency virus 1, NL4-3, MT4. On the technique in general: Damage to the host cells serves as the signal in cytopathic effect assays.

A short description of series [2]: Cytotoxicity against human MT-4 cells assessed as reduction in cell viability by MTT assay. Format: cell-based, MT4. For orientation: Tetrazolium dyes change colour on reduction, which living cells bring about.
A short description of series [3]: Selectivity ratio of CC50 for human MT4 cells to EC50 for antiviral activity against HIV-1 NL4-3 infected in human MT4 cells. Format: toxicity, cell-based. To be noted: read-out: Ratio CC50/EC50.
Series [4] concerns Human immunodeficiency virus 1. The series is described as follows: Antiviral activity against HIV1 harboring RT K103N mutant infected in human MT4 cells assessed as protection against virus-induced cytopathic effect by MTT assay. To be noted: Human immunodeficiency virus 1, MT4. Type of series: functional, organism-based.
The subject of series [5] is Human immunodeficiency virus 1. As to the kind of experiment: Antiviral activity against HIV1 harboring RT Y181C mutant infected in human MT4 cells assessed as protection against virus-induced cytopathic effect by MTT assay. Type of series: functional, organism-based. Conditions: Human immunodeficiency virus 1, MT4.
Series [6] deals with Human immunodeficiency virus 1. The series is described as follows: Antiviral activity against HIV1 harboring RT Y188L mutant infected in human MT4 cells assessed as protection against virus-induced cytopathic effect by MTT assay. Type of series: functional, organism-based. Conditions: Human immunodeficiency virus 1, MT4.
Series [7] concerns Human immunodeficiency virus 1. As to the kind of experiment: Antiviral activity against HIV1 harboring RT K103N/Y181C double mutant infected in human MT4 cells assessed as protection against virus-induced cytopathic effect by MTT assay. Type of series: functional, organism-based. To be noted: Human immunodeficiency virus 1, MT4.
Series [8] concerns Human immunodeficiency virus 1. As to the kind of experiment: Resistance index, ratio of EC50 for antiviral activity against HIV1 harboring RT Y188L mutant infected in human MT4 cells to EC50 for antiviral activity against HIV1 NL4-3 infected in human MT4 cells. Type of series: functional.
The subject of series [9] is Human immunodeficiency virus 1. The series is described as follows: Resistance index, ratio of EC50 for antiviral activity against HIV1 harboring RT K103N/Y181C double mutant infected in human MT4 cells to EC50 for antiviral activity against HIV1 NL4-3 infected in human MT4 cells. Format: functional.
For series [10], the system named is Human immunodeficiency virus 1. As to the kind of experiment: Resistance index, ratio of EC50 for antiviral activity against HIV1 harboring RT Y181C mutant infected in human MT4 cells to EC50 for antiviral activity against HIV1 NL4-3 infected in human MT4 cells. Format: functional.

Molecules are shown by their SMILES. pEC50: −log10 of the molar value. Some results are limits rather than exact numbers.

As a reminder, the pEC50 is the EC50 on a negative log10 scale, so that one unit is a factor of ten. One may read the CC50 as the concentration giving 50% cytotoxicity. With `Cc1cc(C)cc(S(=O)(=O)c2c(C(=O)NCCc3ccccc3O)[nH]c3ccc(Cl)cc23)c1`, the pEC50 was greater than 9.15 in series [1]; greater than 9.15 in [4]; greater than 9.15 in series [5]; 6.68 in series [6]; 6.48 in series [7]. The CC50 in series [2] is 23800 nM. In series [3], the selectivity ratio was greater than 34000. Besides, the “Ratio EC50” value was greater than 296 in series [8] and greater than 473 in series [9].
As for `Cc1cc(C)cc(S(=O)(=O)c2c(C(=O)NC(C)c3ccccc3O)[nH]c3ccc(Cl)cc23)c1` (stereo not drawn), the negative logarithm of the EC50 (pEC50) in [1] is greater than 9.15; in series [4], greater than 9.15; in series [5], 7.72; in [6], 6.72; in series [7], 6.18. Further, the 50% cytotoxic concentration (CC50) in [2] was 21800 nM. Moreover, the selectivity ratio in series [3] was determined as 31100. The entries for the “Ratio EC50” value in [10], in series [8] and in [9] were greater than 27, greater than 270 and greater than 946, respectively.
For `Cc1cc(C)cc(S(=O)(=O)c2c(C(=O)Nc3cccc(O)c3)[nH]c3ccc(Cl)cc23)c1`, the pEC50 was greater than 9.15 in [1]; greater than 9.15 in series [4]; 7.36 in [5]; 6.34 in [6]; 5.22 in [7]. In addition, in series [2], the CC50 is 24600 nM. Moreover, the selectivity ratio in series [3] was greater than 35200. Moreover, the “Ratio EC50” value in series [10] was greater than 62; in series [8] it was greater than 650; in [9] it was greater than 8698.
Take `Cc1cc(C)cc(S(=O)(=O)c2c(C(N)=O)[nH]c3ccc(Cl)cc23)c1`: in series [7], the pEC50 was 6.19.
On to `Cc1cc(C)cc(S(=O)(=O)c2c(C(=O)Nc3ccccc3O)[nH]c3ccc(Cl)cc23)c1`, for which the negative-log EC50 (pEC50) was greater than 9.15 in series [1]; less than 9.15 in series [4]; 7.70 in [5]; 5.32 in series [6]; less than 4.71 in [7]. The half-maximal cytotoxic concentration (CC50) in series [2] amounted to 19700 nM. Besides, the selectivity ratio in [3] was greater than 28200. The “Ratio EC50” value in series [10] is recorded as greater than 28; in [8], greater than 6881; in series [9], greater than 28166.
For the compound `Cc1ccnc2c1NC(=O)c1cccnc1N2C1CC1` [NEVIRAPINE], the negative logarithm of the EC50 (pEC50) in series [1] is 6.95; in series [4], less than 5.43; in series [5] it was less than 5.43; in [6] it was less than 5.43; in series [7] it was less than 5.43. For the same compound, the half-maximal cytotoxic concentration (CC50) in series [2] was greater than 18800 nM.
As for `Cc1cc(C)cc(S(=O)(=O)c2c(C(=O)NCc3cc(O)ncn3)[nH]c3ccc(Cl)cc23)c1`, the pEC50 is greater than 9.15 in series [1]; greater than 9.15 in series [4]; 9.15 in series [5]; 6.97 in [6]; 4.85 in series [7]. The CC50 in series [2] was greater than 53100 nM. For the same compound, in series [3], the selectivity ratio is greater than 75800. Besides, the “Ratio EC50” value in [8] is greater than 151; in series [9], greater than 20385.
As to `NC(=O)c1[nH]c2ccc(Cl)cc2c1S(=O)(=O)c1ccccc1` [L-737126], in series [7], the pEC50 is 5.10.
Turning to `O=C1Nc2ccc(Cl)cc2[C@@](C#CC2CC2)(C(F)(F)F)O1` [EFAVIRENZ], in series [2], the half-maximal cytotoxic concentration (CC50) was greater than 15800 nM. Besides, the pEC50 in series [7] is less than 6.50.
Consider `Cc1cc(C)cc(S(=O)(=O)c2c(C(=O)NC(C)C(N)=O)[nH]c3ccc(Cl)cc23)c1` (stereo not drawn), for which, in series [7], the negative-log EC50 (pEC50) is 6.15.
On the same count and under the same terms, the value for `Cc1cc(C)cc(S(=O)(=O)c2c(C(=O)NCN3CCCC3)[nH]c3ccc(Cl)cc23)c1` was 6.52.
Consider `Cc1cc(C)cc(S(=O)(=O)c2c(C(=O)Nc3ccc(CO)cc3)[nH]c3ccc(Cl)cc23)c1`, for which the negative-log EC50 (pEC50) was greater than 9.15 in series [1], greater than 9.15 in series [4], 7.66 in series [5] and 4.71 in [7]. Besides, the CC50 in series [2] is 39600 nM. For the same compound, the selectivity ratio in series [3] was greater than 56600. Moreover, the “Ratio EC50” value in series [10] is given as greater than 31; in series [9] it was greater than 27904.
